In ChEMBL document CHEMBL1240377, “Comparison of anidulafungin MICs determined by the clinical and laboratory standards institute broth microdilution method (M27-A3 document) and Etest for Candida species isolates” (2010):
Converted amounts (≈) assume the structure as drawn. *1 amine or outer side, *2 acyl side, *3 side chain or, on linkers, in order; H or OH if unused. Where a SMILES comes first, the peptide text is derived from it. Bridges are numbered along the chain shown (N, C = ends). [ ]: non-standard residue; d: D form. The star is where a group is joined. hTyr(3S-OH,4S-OH,3'-OSO3H) = N[C@H](C(=O)O)[C@H](O)[C@@H](O)c1ccc(O)c(OS(=O)(=O)O)c1; pTerphenylCO(4''-OnC5H11) = CCCCCOc1ccc(-c2ccc(-c3ccc(C(=O)*)cc3)cc2)cc1; Orn(4R-OH,5R-OH) = O=C([C@H](C[C@@H](O)[C@@H](O)N[*:3])N[*:1])[*:2]; hTyr(3S-OH,4S-OH) = N[C@H](C(=O)O)[C@H](O)[C@@H](O)c1ccc(O)cc1; Pro(3S-OH,4S-Me) = C[C@H]1CN[C@H](C(=O)O)[C@H]1O; X1 = CCCCCOc1ccc(-c2cc(-c3ccc(C(=O)*)cc3)no2)cc1; Gln(3R-OH) = NC(=O)C[C@@H](O)[C@H](N)C(=O)O; Hyp = O=C(O)[C@@H]1C[C@@H](O)CN1

Legend:
Assay type in all cases: functional
[1] = tested on: Meyerozyma guilliermondii; test: Antimicrobial activity against Pichia guilliermondii ATCC 6260 after 24 hrs by Etest; settings: ATCC 6260, 24 h
Candida albicans [2] = test: Antimicrobial activity against caspofungin-resistant Candida albicans CAI4R1 expressing heterozygous […] mutant gene by CLSI M27-A3 broth microdilution method
Candida albicans [3] = test: Antimicrobial activity against caspofungin-resistant Candida albicans NR2 expressing heterozygous […] mutant gene by Etest
Pichia kudriavzevii [4] = test: Antimicrobial activity against caspofungin-susceptible Issatchenkia orientalis CY-118 CLSI by M27-A3 broth microdilution method
Candida albicans [5] = test: Antimicrobial activity against caspofungin-resistant Candida albicans NR2 expressing heterozygous […] mutant gene by CLSI M27-A3 broth microdilution method
Nakaseomyces glabratus [6] = test: Antimicrobial activity against Candida glabrata after 24 hrs by Etest
Candida albicans [7] = test: Antimicrobial activity against caspofungin-resistant Candida albicans NR4 expressing heterozygous […] mutant gene by CLSI M27-A3 broth microdilution method
Candida albicans [8] = test: Antimicrobial activity against caspofungin-resistant Candida albicans CAI4 by CLSI M27-A3 broth microdilution method
Pichia kudriavzevii [9] = test: Antimicrobial activity against Issatchenkia orientalis after 24 hrs by Etest
Candida albicans [10] = test: Antimicrobial activity against caspofungin-resistant Candida albicans NR4 expressing heterozygous […] mutant gene by Etest
[11] = tested on: Meyerozyma guilliermondii; test: Antimicrobial activity against Pichia guilliermondii ATCC 6260 after 24 hrs by CLSI M27-A3 broth microdilution method; settings: ATCC 6260, 24 h
Candida parapsilosis [12] = test: Antimicrobial activity against Candida parapsilosis after 24 hrs by CLSI M27-A3 broth microdilution method; settings: Lodderomyces parapsilosis
Debaryomyces hansenii [13] = test: Antimicrobial activity against Candida famata after 24 hrs by Etest
Clavispora lusitaniae [14] = test: Antimicrobial activity against Clavispora lusitaniae ATCC 42720 after 24 hrs by CLSI M27-A3 broth microdilution method; settings: ATCC 42720, 24 h
Candida tropicalis [15] = test: Antimicrobial activity against Candida tropicalis after 24 hrs by Etest
Candida albicans [16] = test: Antimicrobial activity against caspofungin-resistant Candida albicans NR3 expressing homozygous […] mutant gene by Etest
Candida tropicalis [17] = test: Antimicrobial activity against Candida tropicalis after 24 hrs by CLSI M27-A3 broth microdilution method
Candida albicans [18] = test: Antimicrobial activity against Candida albicans after 24 hrs by Etest
Candida albicans [19] = test: Antimicrobial activity against caspofungin-resistant Candida albicans CAI4 by Etest
Debaryomyces hansenii [20] = test: Antimicrobial activity against Candida famata after 24 hrs by CLSI M27-A3 broth microdilution method
Candida albicans [21] = test: Antimicrobial activity against Candida albicans after 24 hrs CLSI M27-A3 broth microdilution method
Candida albicans [22] = test: Antimicrobial activity against caspofungin-resistant Candida albicans T32 by CLSI M27-A3 broth microdilution method
Candida albicans [23] = test: Antimicrobial activity against caspofungin-resistant Candida albicans T26 by CLSI M27-A3 broth microdilution method
Candida albicans [24] = test: Antimicrobial activity against caspofungin-resistant Candida albicans T32 by Etest
Candida albicans [25] = test: Antimicrobial activity against caspofungin-resistant Candida albicans T26 by Etest
Candida parapsilosis [26] = test: Antimicrobial activity against Candida parapsilosis after 24 hrs by Etest; settings: Lodderomyces parapsilosis
Pichia kudriavzevii [27] = test: Antimicrobial activity against Issatchenkia orientalis after 24 hrs by CLSI M27-A3 broth microdilution method
Candida albicans [28] = test: Antimicrobial activity against caspofungin-resistant Candida albicans CAI4R1 expressing heterozygous […] mutant gene by Etest
Candida albicans [29] = test: Antimicrobial activity against caspofungin-resistant Candida albicans T25 by Etest
Candida albicans [30] = test: Antimicrobial activity against caspofungin-resistant Candida albicans T25 by CLSI M27-A3 broth microdilution method
Nakaseomyces glabratus [31] = test: Antimicrobial activity against Candida glabrata after 24 hrs by CLSI M27-A3 broth microdilution method
Pichia kudriavzevii [32] = test: Antimicrobial activity against caspofungin-susceptible Candida krusei CY-118 by Etest
Candida albicans [33] = test: Antimicrobial activity against caspofungin-resistant Candida albicans NR3 expressing homozygous […] mutant gene by CLSI M27-A3 broth microdilution method
Clavispora lusitaniae [34] = test: Antimicrobial activity against Clavispora lusitaniae ATCC 42720 after 24 hrs by Etest; settings: ATCC 42720, 24 h

## CCCCCOc1ccc(-c2ccc(-c3ccc(C(=O)N[C@H]4C[C@@H](O)[C@@H](O)NC(=O)[C@@H]5[C@@H](O)[C@@H](C)CN5C(=O)[C@H]([C@@H](C)O)NC(=O)[C@H]([C@H](O)[C@@H](O)c5ccc(O)cc5)NC(=O)[C@@H]5C[C@@H](O)CN5C(=O)[C@H]([C@@H](C)O)NC4=O)cc3)cc2)cc1 [ANIDULAFUNGIN] ({pTerphenylCO(4''-OnC5H11)}-[Orn(4R-OH,5R-OH)]T[Hyp][hTyr(3S-OH,4S-OH)]T[Pro(3S-OH,4S-Me)]; lactam 1-C)
[1]
  MIC50: 1 µg/mL (≈ 0.877 µM)
  MIC90: 8 µg/mL (≈ 7.02 µM)
Candida albicans [2]
  MIC: 0.5 µg/mL (≈ 0.438 µM)
Candida albicans [3]
  MIC: 1 µg/mL (≈ 0.877 µM)
Pichia kudriavzevii [4]
  MIC: 0.5 µg/mL (≈ 0.438 µM)
Candida albicans [5]
  MIC: 0.12 µg/mL (≈ 0.105 µM)
Nakaseomyces glabratus [6]
  MIC50: 0.016 µg/mL (≈ 0.014 µM)
  MIC90: 0.016 µg/mL (≈ 0.014 µM)
Candida albicans [7]
  MIC: 0.25 µg/mL (≈ 0.219 µM)
Candida albicans [8]
  MIC: ≤ 0.032 µg/mL
Pichia kudriavzevii [9]
  MIC50: 0.03 µg/mL (≈ 0.0263 µM)
  MIC90: 0.5 µg/mL (≈ 0.438 µM)
Candida albicans [10]
  MIC: 0.5 µg/mL (≈ 0.438 µM)
[11]
  MIC50: 1 µg/mL (≈ 0.877 µM)
  MIC90: 1 µg/mL (≈ 0.877 µM)
Candida parapsilosis [12]
  MIC50: 0.5 µg/mL (≈ 0.438 µM)
  MIC90: 4 µg/mL (≈ 3.51 µM)
Debaryomyces hansenii [13]
  MIC: 0.06 µg/mL (≈ 0.0526 µM)
  MIC50: 0.06 µg/mL (≈ 0.0526 µM)
Clavispora lusitaniae [14]
  MIC: 0.03 µg/mL (≈ 0.0263 µM)
  MIC50: 0.03 µg/mL (≈ 0.0263 µM)
Candida tropicalis [15]
  MIC: ≤ 0.016 µg/mL
Candida albicans [16]
  MIC: 32 µg/mL (≈ 28.1 µM)
Candida tropicalis [17]
  MIC: ≤ 0.016 µg/mL
Candida albicans [18]
  MIC50: 0.016 µg/mL (≈ 0.014 µM)
  MIC90: 1 µg/mL (≈ 0.877 µM)
Candida albicans [19]
  MIC: ≤ 0.032 µg/mL
Debaryomyces hansenii [20]
  MIC: 0.03 µg/mL (≈ 0.0263 µM)
  MIC50: 0.03 µg/mL (≈ 0.0263 µM)
Candida albicans [21]
  MIC50: 0.016 µg/mL (≈ 0.014 µM)
  MIC90: 0.25 µg/mL (≈ 0.219 µM)
Candida albicans [22]
  MIC: 0.032 µg/mL (≈ 0.0281 µM)
Candida albicans [23]
  MIC: 1 µg/mL (≈ 0.877 µM)
Candida albicans [24]
  MIC: ≤ 0.032 µg/mL
Candida albicans [25]
  MIC: 0.5 µg/mL (≈ 0.438 µM)
Candida parapsilosis [26]
  MIC50: 2 µg/mL (≈ 1.75 µM)
  MIC90: 8 µg/mL (≈ 7.02 µM)
Pichia kudriavzevii [27]
  MIC50: 0.03 µg/mL (≈ 0.0263 µM)
  MIC90: 0.12 µg/mL (≈ 0.105 µM)
Candida albicans [28]
  MIC: 2 µg/mL (≈ 1.75 µM)
Candida albicans [29]
  MIC: 2 µg/mL (≈ 1.75 µM)
Candida albicans [30]
  MIC: 1 µg/mL (≈ 0.877 µM)
Nakaseomyces glabratus [31]
  MIC50: 0.03 µg/mL (≈ 0.0263 µM)
  MIC90: 0.12 µg/mL (≈ 0.105 µM)
Pichia kudriavzevii [32]
  MIC: ≤ 0.032 µg/mL
Candida albicans [33]
  MIC: 1 µg/mL (≈ 0.877 µM)
Clavispora lusitaniae [34]
  MIC: 0.06 µg/mL (≈ 0.0526 µM)
  MIC50: 0.06 µg/mL (≈ 0.0526 µM)

## CC[C@H](C)C[C@H](C)CCCCCCCCC(=O)N[C@H]1C[C@@H](O)[C@@H](NCCN)NC(=O)[C@@H]2[C@@H](O)CCN2C(=O)[C@H]([C@H](O)CCN)NC(=O)[C@H]([C@H](O)[C@@H](O)c2ccc(O)cc2)NC(=O)[C@@H]2C[C@@H](O)CN2C(=O)[C@H]([C@@H](C)O)NC1=O [CASPOFUNGIN]
Candida albicans [2]
  MIC: 4 µg/mL (≈ 3.66 µM)
Pichia kudriavzevii [4]
  MIC: 4 µg/mL (≈ 3.66 µM)
Candida albicans [5]
  MIC: 4 µg/mL (≈ 3.66 µM)
Candida albicans [7]
  MIC: 2 µg/mL (≈ 1.83 µM)
Candida albicans [8]
  MIC: ≤ 0.032 µg/mL
Candida albicans [22]
  MIC: 0.25 µg/mL (≈ 0.229 µM)
Candida albicans [23]
  MIC: 8 µg/mL (≈ 7.32 µM)
Candida albicans [30]
  MIC: 8 µg/mL (≈ 7.32 µM)
Candida albicans [33]
  MIC: 8 µg/mL (≈ 7.32 µM)

## CCCCCOc1ccc(-c2cc(-c3ccc(C(=O)N[C@H]4C[C@@H](O)[C@@H](O)NC(=O)[C@@H]5[C@@H](O)[C@@H](C)CN5C(=O)[C@H]([C@H](O)CC(N)=O)NC(=O)[C@H]([C@H](O)[C@@H](O)c5ccc(O)c(OS(=O)(=O)O)c5)NC(=O)[C@@H]5C[C@@H](O)CN5C(=O)[C@H]([C@@H](C)O)NC4=O)cc3)no2)cc1 [MICAFUNGIN] (X1-[Orn(4R-OH,5R-OH)]T[Hyp][hTyr(3S-OH,4S-OH,3'-OSO3H)][Gln(3R-OH)][Pro(3S-OH,4S-Me)]; lactam 1-C)
Candida albicans [2]
  MIC: 0.25 µg/mL (≈ 0.197 µM)
Pichia kudriavzevii [4]
  MIC: 1 µg/mL (≈ 0.787 µM)
Candida albicans [5]
  MIC: 0.25 µg/mL (≈ 0.197 µM)
Candida albicans [7]
  MIC: 0.25 µg/mL (≈ 0.197 µM)
Candida albicans [8]
  MIC: ≤ 0.032 µg/mL
Candida albicans [22]
  MIC: ≤ 0.032 µg/mL
Candida albicans [23]
  MIC: 1 µg/mL (≈ 0.787 µM)
Candida albicans [30]
  MIC: 1 µg/mL (≈ 0.787 µM)
Candida albicans [33]
  MIC: 1 µg/mL (≈ 0.787 µM)
